Reference: patent US20140206681A1, “BTK INHIBITORS” (priority 2013, published 2014)
pIC50: −log10 of the molar value. Read-outs that look alike come from different tables or passages of the source.

What was measured:
[1] = molecular target: T1, BTK enzyme (recombinant full-length BTK, hBTK) (Homo sapiens, UniProt Q06187); assay: BTK enzyme activity assay, LANCE TR-FRET; assay type: biochemical; details: 50 pM hBTK, 2 μM biotin-A5-peptide, 25 μM ATP; 60 min compound & enzyme incubation; read-out: IC50 BTK activity value
T1 construct: recombinant protein from baculovirus-transfected Sf9 cells: full-length BTK, 6HIS-tag cleaved; 6HIS (cleaved yes); made in house; host or cells: baculovirus-transfected Sf9 cells

HeLa cells = assay: [3H]Adenosine uptake functional cellular assay; assay type: cell-based; details: accumulation of [3H]adenosine into HeLa cells, compound range 10 μM to […], read-out: Adenosine uptake inhibition IC50
Experimental: Compounds are also screened in an adenosine uptake functional cellular assay using the protocol described below. The adenosine uptake inhibition assay may be used to identify compounds with the potential for a negative cardiovascular side effect.
Adenosine uptake activity was determined by monitoring the accumulation of tritiated adenosine into HeLa cells (ATCC catalog # CCL-2) using a PMT-based radiometric detection instrument. […] These cells were incubated overnight at 37° C. in a humidified atmosphere with 5% (v/v) CO2. After this time the growth medium was removed and replaced with 40 μL assay medium comprising: Hanks balanced salts solution (HBSS; Thermo Fisher Catalog # SH30268.01)+5% (v/v) FBS. […] 40 μL of compound in the assay medium was dispensed into individual wells of the Cytostar-T plates and the plates were incubated for 30 minutes under ambient laboratory conditions. Following this incubation, 20 μL of 500 nM [^3H]adenosine (American Radiolabeled Chemicals Inc. Catalog # ART0287) was added in the assay medium and incubated for a further 60 minutes under ambient laboratory conditions. The amount of radiolabel accumulation was then determined using a Perkin Elmer Topcount NXT microplate reader. In brief, HeLa cells adhere to the bottom of the Cytostar-T plate, uptake of [^3H]adenosine into these cells brings the radiolabel into sufficient proximity to excite the scintillant in the base of the plates. These events are captured by single PMT, time-resolved coincidence counting. IC50 values were determined by 4 parameter robust fit of counts per second values vs. (Log10) compound concentrations.

T1 sequence (Q06187 whole entry): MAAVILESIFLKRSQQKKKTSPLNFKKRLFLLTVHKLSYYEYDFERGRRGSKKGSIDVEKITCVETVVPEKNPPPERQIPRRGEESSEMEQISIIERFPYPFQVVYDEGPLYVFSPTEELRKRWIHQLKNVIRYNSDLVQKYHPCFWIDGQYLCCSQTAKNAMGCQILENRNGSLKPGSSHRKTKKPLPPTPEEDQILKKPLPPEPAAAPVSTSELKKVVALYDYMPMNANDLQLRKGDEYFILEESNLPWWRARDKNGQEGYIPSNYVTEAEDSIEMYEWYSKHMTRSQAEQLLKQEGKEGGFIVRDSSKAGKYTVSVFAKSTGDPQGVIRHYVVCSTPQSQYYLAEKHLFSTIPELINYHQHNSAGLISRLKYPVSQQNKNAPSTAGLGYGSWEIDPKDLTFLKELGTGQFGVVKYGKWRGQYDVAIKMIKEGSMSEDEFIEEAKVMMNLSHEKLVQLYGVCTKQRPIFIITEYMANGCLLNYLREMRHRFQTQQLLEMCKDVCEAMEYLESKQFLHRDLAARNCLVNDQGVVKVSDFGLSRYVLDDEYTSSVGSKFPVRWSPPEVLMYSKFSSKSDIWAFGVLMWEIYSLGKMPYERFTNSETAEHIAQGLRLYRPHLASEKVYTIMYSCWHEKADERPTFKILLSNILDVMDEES

pIC50 [1]	pIC50 (HeLa cells)	pIC50 (HeLa cells; Homo sapiens, HeLa)	Compound
8.72	5.15		4-(8-amino-3-((6R,8aS)-3-oxooctahydroindolizin-6-yl)imidazo[1,5-a]pyrazin-1-yl)-3-(2-methoxyethoxy)-N-(4-(trifluoromethyl)pyridin-2-yl)benzamide [Example 199]
10.24		7.14	CC1CC(=O)N2C[C@H](c3nc(-c4ccc(C(=O)Nc5cc(C(F)(F)F)ccn5)cc4)c4c(N)nccn34)CC[C@H]12 (stereo in doubt) [Example 63, 4-{8-amino-3-[(1S,6R,8aR)-1-methyl-3-oxooctahydroindolizin-6-yl]imidazo[1,5-a]pyrazin-1-yl}-N-[4-(trifluoromethyl)pyridin-2-yl]benzamide]
10.07		6.88	CC1CC(=O)N2C[C@H](c3nc(-c4ccc(C(=O)Nc5cc(C(F)(F)F)ccn5)cc4)c4c(N)nccn34)CC[C@@H]12 (stereo in doubt) [Example 65, 4-{8-amino-3-[(1R,6R,8aS)-1-methyl-3-oxooctahydroindolizin-6-yl]imidazo[1,5-a]pyrazin-1-yl}-N-[4-(trifluoromethyl)pyridin-2-yl]benzamide]
8.14		6.10	CN1C[C@@H]2CC[C@@H](c3nc(-c4ccc(C(=O)Nc5cc(C(F)(F)F)ccn5)cc4)c4c(N)nccn34)CN2C1=O [Example 3, 4-(8-amino-3-((6R,8aS)-2-methyl-3-oxooctahydroimidazo[1,5-a]pyridin-6-yl)imidazo[1,5-a]pyrazin-1-yl)-N-(4-(trifluoromethyl)pyridin-2-yl)benzamide]
10.00		7.21	Nc1nccn2c([C@@H]3CC[C@H]4CCC(=O)N4C3)nc(-c3ccc(C(=O)Nc4cc(C(F)(F)F)ccn4)cc3)c12 [Example 4, 4-(8-amino-3-((6R,8aS)-3-oxooctahydroindolizin-6-yl)imidazo[1,5-a]pyrazin-1-yl)-N-(4-(trifluoromethyl)pyridin-2-yl)benzamide]
		6.91	CN1CC[C@@H]2CC[C@@H](c3nc(-c4ccc(C(=O)Nc5cc(C(F)(F)F)ccn5)cc4)c4c(N)nccn34)CN2C1=O [Example 83, 4-(8-amino-3-((4aS,7R)-2-methyl-1-oxooctahydro-1H-pyrido[1,2-c]pyrimidin-7-yl)imidazo[1,5-a]pyrazin-1-yl)-N-(4-(trifluoromethyl)pyridin-2-yl)benzamide]
		6.81	CN1CC[C@H]2CC[C@H](c3nc(-c4ccc(C(=O)Nc5cc(C(F)(F)F)ccn5)cc4)c4c(N)nccn34)CN2C1=O [Example 84, 4-(8-amino-3-((4aR,7S)-2-methyl-1-oxooctahydro-1H-pyrido[1,2-c]pyrimidin-7-yl)imidazo[1,5-a]pyrazin-1-yl)-N-(4-(trifluoromethyl)pyridin-2-yl)benzamide]
		6.16	COc1cc(C(=O)Nc2cc(C(F)(F)F)ccn2)ccc1-c1nc([C@@H]2CC[C@H]3CCC(=O)N3C2)n2ccnc(N)c12 [Example 88, 4-(8-amino-3-((6R,8aS)-3-oxooctahydroindolizin-6-yl)imidazo[1,5-a]pyrazin-1-yl)-3-methoxy-N-(4-(trifluoromethyl)pyridin-2-yl)benzamide]
9.27			CCOc1cc(C(=O)Nc2cc(C(F)(F)F)ccn2)ccc1-c1nc([C@@H]2CC[C@H]3CC(C)(C)C(=O)N3C2)n2ccnc(N)c12 [Example 113, 4-{8-amino-3-[(6R,8aS)-2,2-dimethyl-3-oxooctahydroindolizin-6-yl]imidazo[1,5-a]pyrazin-1-yl}-3-ethoxy-N-[4-(trifluoromethyl)pyridin-2-yl]benzamide]
7.91			Cc1c(C(F)(F)F)ccnc1NC(=O)c1ccc(-c2nc([C@@H]3CC[C@H]4CCC(=O)N4C3)n3ccnc(N)c23)cc1 [Example 122, 4-{8-amino-3-[(6R,8aS)-3-oxooctahydroindolizin-6-yl]imidazo[1,5-a]pyrazin-1-yl}-N-[3-methyl-4-(trifluoromethyl)pyridin-2-yl]benzamide]
6.12			Nc1nccn2c([C@@H]3CC[C@H]4CCC(=O)N4C3)nc(-c3ccc(C(=O)Nc4cc(C(F)(F)F)cc(C5CCC5)n4)cc3)c12 [Example 126, 4-{8-amino-3-[(6R,8aS)-3-oxooctahydroindolizin-6-yl]limidazo[1,5-a]pyrazin-1-yl}-N-[6-cyclobutyl-4-(trifluoromethyl)pyridin-2-yl]benzamide]
9.26			CCOc1cc(C(=O)Nc2cc(C(F)(F)F)ccn2)c(F)cc1-c1nc([C@@H]2CC[C@H]3CCC(=O)N3C2)n2c(Cl)cnc(N)c12 [Example 133, 4-{8-amino-5-chloro-3-[(6R,8aS)-3-oxooctahydroindolizin-6-yl]imidazo[1,5-a]pyrazin-1-yl}-5-ethoxy-2-fluoro-N-[4-(trifluoromethyl)pyridin-2-yl]benzamide]
9.66			COc1cc(C(=O)Nc2cc(C(F)(F)F)ccn2)ccc1-c1nc([C@@H]2CC[C@H]3CCC(=O)N3C2)n2c(Cl)cnc(N)c12 [Example 143, 4-{8-amino-5-chloro-3-[(6R,8aS)-3-oxooctahydroindolizin-6-yl]imidazo[1,5-a]pyrazin-1-yl}-3-methoxy-N-[4-(trifluoromethyl)pyridin-2-yl]benzamide]
9.30			Nc1ncc(Cl)n2c([C@@H]3CC[C@H]4CCC(=O)N4C3)nc(-c3ccc(C(=O)Nc4cc(C(F)(F)F)ccn4)cc3OC3CC3)c12 [Example 144, 4-{8-amino-5-chloro-3-[(6R,8aS)-3-oxooctahydroindolizin-6-yl]imidazo[1,5-a]pyrazin-1-yl}-3-(cyclopropyloxy)-N-[4-(trifluoromethyl)pyridin-2-yl]benzamide]
9.09			Cc1cnc(NC(=O)c2ccc(-c3nc([C@@H]4CC[C@H]5CCC(=O)N5C4)n4c(Cl)cnc(N)c34)cc2)s1 [Example 154, 4-{8-amino-5-chloro-3-[(6R,8aS)-3-oxooctahydroindolizin-6-yl]imidazo[1,5-a]pyrazin-1-yl}-N-(5-methyl-1,3-thiazol-2-yl)benzamide]
9.39			Cn1nc(NC(=O)c2ccc(-c3nc([C@@H]4CC[C@H]5CCC(=O)N5C4)n4ccnc(N)c34)cc2)cc1C(F)(F)F [Example 171, 4-{8-amino-3-[(6R,8aS)-3-oxooctahydroindolizin-6-yl]imidazo[1,5-a]pyrazin-1-yl}-N-[1-methyl-5-(trifluoromethyl)-1H-pyrazol-3-yl]benzamide]
7.29			Nc1nccn2c([C@@H]3CC[C@H]4CCC(=O)N4C3)nc(-c3ccc(C(=O)Nc4ncc[nH]4)cc3)c12 [Example 172, 4-{8-amino-3-[(6R,8aS)-3-oxooctahydroindolizin-6-yl]imidazo[1,5-a]pyrazin-1-yl}-N-1H-imidazol-2-ylbenzamide]
6.61			Nc1nccn2c([C@@H]3CC[C@H]4CCC(=O)N4C3)nc(-c3ccc(C(=O)Nc4cc(C(F)(F)F)on4)cc3)c12 [Example 173, 4-{8-amino-3-[(6R,8aS)-3-oxooctahydroindolizin-6-yl]imidazo[1,5-a]pyrazin-1-yl}-N-[5-(trifluoromethyl)isoxazol-3-yl]benzamide]
6.62			Nc1nccn2c([C@@H]3CC[C@H]4CCC(=O)N4C3)nc(-c3ccc(C(=O)Nc4cc(C(F)(F)F)no4)cc3)c12 [Example 174, 4-{8-amino-3-[(6R,8aS)-3-oxooctahydroindolizin-6-yl]imidazo[1,5-a]pyrazin-1-yl}-N-[3-(trifluoromethyl)isoxazol-5-yl]benzamide]
9.03			Cn1nc(NC(=O)c2ccc(-c3nc([C@@H]4CC[C@H]5CCC(=O)N5C4)n4ccnc(N)c34)cc2)cc1C1CC1 [Example 181, 4-{8-amino-3-[(6R,8aS)-3-oxooctahydroindolizin-6-yl]imidazo[1,5-a]pyrazin-1-yl}-N-(5-cyclopropyl-1-methyl-1H-pyrazol-3-yl)benzamide]
6.81			CCOC(=O)c1oc(NC(=O)c2ccc(-c3nc([C@@H]4CC[C@H]5CCC(=O)N5C4)n4ccnc(N)c34)cc2)nc1C(F)(F)F [Example 184, ethyl 2-{[(4-{8-amino-3-[(6R,8aS)-3-oxooctahydroindolizin-6-yl]imidazol[1,5-a]pyrazin-1-yl}phenyl)carbonyl]amino}-4-(trifluoromethyl)-1,3-oxazole-5-carboxylate]
8.16			Cc1cc(C(=O)Nc2cc(C(F)(F)F)n(C)n2)ccc1-c1nc([C@@H]2CC[C@H]3CCC(=O)N3C2)n2ccnc(N)c12 [Example 186, 4-{8-amino-3-[(6R,8aS)-3-oxooctahydroindolizin-6-yl]imidazo[1,5-a]pyrazin-1-yl}-3-methyl-N-[1-methyl-5-(trifluoromethyl)-1H-pyrazol-3-yl]benzamide]
9.70			CCOc1cc(C(=O)Nc2cc(C(F)(F)F)ccn2)ccc1-c1nc([C@@H]2CC[C@@H]3N(C2)C(=O)CC3(C)C)n2ccnc(N)c12 [Example 222, 4-(8-amino-3-((6R,8aS)-1,1-dimethyl-3-oxooctahydroindolizin-6-yl)imidazo[1,5-a]pyrazin-1-yl)-3-ethoxy-N-(4-(trifluoromethyl)pyridin-2-yl)benzamide]
